# Several values for one entry are separate records, joined by “and”; a condition that tells them apart may be missing. Equal values may be shown once.
# What was measured:
# [1] = test system: patients with RLS; assay: Case reports: oral ketamine in patients with RLS (Examples 1-6); type: in vivo, human; conditions: for earlier treatment / earlier treatment of back pain, neurogenic claudication and RLS: before ketamine
# Method: A patient presented with a history of back pain, neurogenic claudication, and RLS. Treatment with the dopaminergic agonist, pergolide and oxycodone had been ineffective. In addition to RLS, the patient's past history included prior spinal surgery, insulin-dependent diabetes mellitus, sleep apnea, and congestive heart failure. Their family history was positive for RLS.
# The patient was prescribed amitriptyline 25 mg at bedtime and gabapentin 300 mg three times daily in addition to their other medications.
# After consenting to the evaluation of single dose efficacy of oral ketamine, the patient received 30 mg of ketamine mixed in 50 cc (or ml) of water. After 20 minutes of observation, the patient noted that their VAS score had improved to 2/10.
# A patient with a history of chronic lower back pain, spinal stenosis, scoliosis, and RLS complained of worsening neurogenic claudication. Their VAS was 7/10.
# The patient was then treated with 50 mg of oral ketamine.
# A patient presented with a history of cardiac transplant, on immune suppressive medication, could not be treated with steroids for with spinal stenosis, neurogenic claudication, and RLS.
# A patient presented with a history of multiple back surgeries and depression. […] Opioids were restarted to control the return of the patient's back pain.
# A patient presented with a history of a renal transplant with documented lumbar radiculopathy and severe RLS on immunosuppressive treatment. The RLS symptoms were so severe that the patient could not keep their legs still at their initial office visit. […] While the RLS remitted during 4 months of treatment with 25 mg of ketamine daily, opioids were added to the treatment for pain control.
# A dialysis patient presented with a history of failed back surgery, spinal stenosis and severe leg pain which responded to treatment with methadone but maintained severe RLS where the patient was not able to sleep more than 2 hours/night.
# [2] = test system: patients with RLS; assay: Patients treated with doses of oral ketamine (Examples 7-23, Table); type: in vivo, human
# Method: In the Table shown below, patients were treated with doses of oral ketamine.
# (§1) The patients, shown in Examples 7-23, were treated with doses of liquid oral ketamine or oral ketamine in tablet form. There were no patients who had serum levels of ketamine measured that reached the levels reported for therapeutic analgesic effect of ketamine, i.e., 200 ng/ml.
# [3] = Serum levels of ketamine in patients treated with low doses of oral ketamine; type: in vivo, human
# Method: Also, it is suitable that the dose of ketamine administered is less than the dose generally administered for alleviation of pain. For example, since only about 20% of an oral dose of ketamine is absorbed, the successful treatment of a patient with 2 mg of ketamine for RLS over a 24 hour period would equal less than 0.001 mg/kg/hour. At these doses, the threshold serum level for pyschotomimetic side effects (on the order of 50 ng/ml) is not reached. Moreover, the threshold serum level for pain relief (on the order of 200 ng/ml) is also not approached. […] Thus, the serum levels at which oral ketamine acts to relieve RLS are substanitially lower than those reported for pain relief. Treatment with low dosages of oral ketamine provides relief for subjects suffering from or affected by RLS by alleviating symptoms associated with RLS, and avoids the side effects generally encountered in the use of ketamine for the treatment of conscious patients and/or other therapies for RLS described above.
# as §1
# [4] = cited from earlier work
# [5] = test system: NMDA receptor; conditions: primary metabolite of oral ketamine; cited from earlier work
# [6] = Example 1, amitriptyline 25 mg at bedtime and gabapentin 300 mg three times daily together, a month later
# [7] = Example 3, oral 20 mg at bedtime
# [8] = one patient per row (Examples 7-23), oral ketamine 10-100 mg/24 hours (col I), treatment 1-8 months (col G)
structure (smiles),measurement,setting,value
CN(C)CCC=C1c2ccccc2CCc2ccccc21 [amitriptyline],symptoms,[1]; [6],no improvement in their symptoms
same,verbal analog pain score (VAS),[1]; [6],6/10
NCC1(CC(=O)O)CCCCC1 [gabapentin],symptoms,[1]; [6],no improvement in their symptoms
same,verbal analog pain score (VAS),[1]; [6],6/10
same,earlier treatment,[1]; Example 2,without success
"CNC1(c2ccccc2Cl)CCCCC1=O (centres unmarked) [ketamine, (2-o-chlorophenyl)-2-(methylamino)-cyclohexanone]",verbal analog pain score (VAS),"[1]; Example 1, person, single oral dose 30 mg ketamine in 50 cc water, after 20 minutes, VAS before 6/10",2/10
same,sleep and RLS,"[1]; Example 1, oral 30 mg twice a day for 6 months",improvement in sleep and RLS
same,side effects after single dose,"[1]; Example 1, single oral dose 30 mg","no dizziness, or other distressing symptoms"
same,VAS,"[1]; Example 2, person, 50 mg oral ketamine, within 15 minutes, VAS before 7/10",2/10
same,walking,"[1]; Example 2, 50 mg oral ketamine, within 15 minutes",subjective improvement in walking
same,sleep and RLS symptoms,"[1]; Example 2, oral 40 mg twice a day, a month following the trial",significant improvement in their sleep and RLS symptoms
same,pain relief,[1]; [7],no pain relief
same,side effects,[1]; [7],psychotomimetic side effects
same,RLS,"[1]; Example 3, oral 20 mg at bedtime, persisted after ketamine was stopped",resolution of RLS
same,RLS symptoms and sleep,"[1]; Example 4, oral daily 25 mg",lessened RLS symptoms and improved sleep
same,pain and RLS,"[1]; Example 5, renal transplant patient, oral daily 10 mg",pain relief and resolution of RLS
same,RLS,"[1]; Example 5, 25 mg daily, 4 months of treatment",RLS remitted
same,reduction of RLS symptoms,"[1]; Example 6, dialysis patient, 2 mg oral at bedtime",more than 50%
same,tolerability (psychotomimetic effects),"[1]; Example 6, dialysis patient, 20 mg daily oral",could not tolerate
same,psychotomimetic side effects,"[1]; Example 6, 2 mg oral at bedtime",no psychotomimetic side effects
same,sleep duration,"[1]; Example 6, 2 mg oral at bedtime, before not more than 2 hours/night",more than 4.5 hrs./night
same,F = VAS or visual analog scale for pain/walking ability (improvement),[2]; [8],80% (4×) and 60% (5×) and 90% and 70% (4×) and 50% (2×) and 40%
same,J = complications,[2]; [8],No (14×) and Yes (2×) and Rash
same,RLS symptoms,"[2]; patients of Examples 7-23, low ketamine dosage","improved related limb sensations, motor restlessness and insomnia"
same,serum levels of ketamine,"[3]; patients of Examples 7-23 who had serum levels measured, liquid or tablet oral ketamine",< 200 ng/mL
same,serum levels of ketamine,"[3]; patients treated with low doses of oral ketamine for RLS, commercially available tests",not to have detectable serum levels
same,threshold serum level for pain relief,[4]; in vivo,~200 ng/mL
same,fraction of an oral dose absorbed,[4]; oral,about 20%
CCC(=O)C(CC(C)N(C)C)(c1ccccc1)c1ccccc1 (centres unmarked) [methadone],severe leg pain,"[1]; Example 6, dialysis patient, severe RLS maintained",responded
NC1(c2ccccc2Cl)CCCCC1=O (centres unmarked) [norketamine],potency relative to ketamine,[5],one-third to one-fifth
COc1ccc2c3c1O[C@H]1C(=O)CC[C@@]4(O)[C@@H](C2)N(C)CC[C@]314 [oxycodone],"earlier treatment of back pain, neurogenic claudication and RLS",[1]; Example 1,ineffective
CCCN1C[C@H](CSC)C[C@@H]2c3cccc4[nH]cc(c34)C[C@H]21 [pergolide],"earlier treatment of back pain, neurogenic claudication and RLS",[1]; Example 1,ineffective
C=C[C@H]1C[N@@]2CC[C@H]1C[C@H]2[C@H](O)c1ccnc2ccc(OC)cc12 [quinine],earlier treatment,[1]; Example 2,without success
CS(=O)(=O)c1ccc(C2=C(c3ccccc3)C(=O)OC2)cc1 [rofecoxib],earlier treatment,[1]; Example 2,without success
COc1cccc(C2(O)CCCCC2CN(C)C)c1 (centres unmarked) [tramadol],earlier treatment,[1]; Example 2,without success
